Laboratory results: patent US9060966B2, “Use of 2,5-dihydroxybenzene derivatives for the treatment of arthritis and pain” (priority 2006, dated 2015)

Key:
[1] = tested on: corneal neovascularization; assay: Topical treatment of human corneal neovascularization; format: in vivo; settings: 5% solution of potassium salt, 4 drops a day topical, 19 days, one patient
Excerpt: Photographs showing the presence of corneal neovascularization in a patient before being treated (A) and after 19 days of topical application of a solution containing 5% of potassium 2,5-dihydroxybenzoate (B). The treatment consisted of daily topical application of 4 drops of such solution.
4 drops a day were topically applied in a patient that presented a corneal neovascularization process refractory to any type of previous treatment.

[2] = biological target: T1, fibroblast growth factor-1 (FGF-1) (Homo sapiens, UniProt P05230); assay: Inhibition of fibroblast mitogenesis induced by FGF-1 in Balb/c 3T3 fibroblasts; format: cell-based; parameters: host or cells: added to Balb/c 3T3 fibroblasts (mouse); settings: quiescent Balb/c 3T3 cultures; potassium salts, except 2-acetoxy-5-hydroxybenzene sulfonate as calcium salt
T1 sequence (P05230 whole entry, species assumed): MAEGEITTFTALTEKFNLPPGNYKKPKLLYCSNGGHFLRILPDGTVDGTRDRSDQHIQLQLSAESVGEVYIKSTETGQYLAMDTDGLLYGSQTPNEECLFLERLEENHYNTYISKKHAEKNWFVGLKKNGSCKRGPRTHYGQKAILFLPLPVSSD
Method: The evaluated compounds were used in the form of potassium salt, except in the first case in which calcium salt was used. The experiments were carried out as described in Fernandez-Tornero C et al. J Biol Chem, 2003.

[3] = tested on: human retinal endothelial cells (HREC); assay: Proliferation of human retinal endothelial cells (HREC, crystal violet); format: cell-based; settings: 72 h
Method: (§1) 2A-5HBS was administered or not administered (control) after seeding the HREC in 24-well plates (7.5×10^3 per well) until they were fixed after 72 hours. The data are expressed as the mean±SEM of the percentage of the absorbance at 595 nm obtained in the control cultures, which is proportional to the number of cells stained with crystal violet. The data were obtained from 6 cultures for each treatment in two separate experiments. The white bar represents the value of the control cells, whereas the gray bars show the value in the presence of 2A-5HBS (500 and 1000 μM). * indicates p<0.05, *** p<0.001 with respect to the control by means of a single-factor analysis of variance (ANOVA) followed by a Student-Newman-Keuls post-analysis.
as §1, with “5A-2HBS” for “2A-5HBS”, “striped” for “gray”, “***” for “*”, “indicates” for “indicates p<0.05, ***”
2,5-DHCME was administered or not administered (control) after seeding the HREC in 24-well plates (7.5×10^3 per well) until they were fixed after 72 hours. The data are expressed as the mean±SEM of the percentage of the absorbance at 595 nm obtained in the control cultures, which is proportional to the number of cells stained with crystal violet. The data were obtained from 6 cultures for each treatment in two separate experiments.
Primary cultures of human retinal endothelial cells (HREC) were used. Cells were obtained from Cell Systems (Virginia, USA) and subcultured with CSC complete medium (Cell Systems). Cells at 2 to 5 passages were seeded in 24-well plates at 7,500 cells/well density and, once attached, the cells were treated o not treated (controls) with 2A-5HBS (500 and 1000 μM) or 5A-2HBS (500 and 1000 μM) and they were allowed to proliferate for 72 hours, with daily medium changes. After that, the proliferation of HREC was evaluated by staining the fixed cells with crystal violet. The number of cells is proportional to the amount of retained dye, which was spectrophotometrically determined by measuring absorbance at 595 nm after removing the dye from the cells. Data are expressed as the percentage of absorbance at 595 nm obtained in control conditions. Data were obtained from two different experiments performed in triplicate.
Primary cultures of human retinal endothelial cells (HREC) were used. Cells were obtained from Cell Systems (Virginia, USA) and subcultured with CSC complete medium (Cell Systems). […] After that, the proliferation of HREC was evaluated by staining the fixed cells with crystal violet. The number of cells is proportional to the amount of retained dye, which was spectrophotometrically determined by measuring absorbance at 595 nm after removing the dye from the cells. Data are expressed as the percentage of absorbance at 595 nm obtained in control conditions. […]

Leishmania major = assay: Experimental infection with Leishmania major in a mouse model (paw thickness); format: in vivo, mice; settings: 200 mg/kg/day i.p. for 14 days from third week after infection, effect from the eighth week
Excerpt: (§2) The vehicle group consisted of infected animals that received daily injections of saline (0.9% NaCl) during the same period as DHBS. Results are expressed as the mean±the standard deviation of the increases in size of the inoculated paw (right) compared to the non-inoculated paw (left) in mm obtained with a Vernier caliper each week from 0 to 10. ** indicates p<0.01 vs. the vehicle-treated group by a Student t-test. 6 animals were used for each group.
as §2, with “from” for “during”, “moment of the infection, while the control group consisted of non-infected animals.” for “same period as DHBS.”, “9. *” for “10. **”, “p<0.05” for “p<0.01”, “vehicle” for “vehicle-treated”, “7” for “6”
as §2, with “from” for “during”, “third week after the infection.” for “same period as DHBS.”, “9. *” for “10. **”, “p<0.05” for “p<0.01”, “vehicle” for “vehicle-treated”, “7” for “6”
This model is based in the massive inoculation of Leishmania promatigotes in the mouse paw pad. Under these conditions, the parasite induces a progressive inflammation correlated with the multiplication of parasites at the site of inoculation. BALB/c strain female mice that developed severe and uncontrolled injuries were used (Foote S J, Handman E. Brief Funct Genomic Proteomic, 2005). This model has been used in pharmacology to monitor the therapeutic capacity of new leishmanicide compounds and the preventive capacity of potential vaccines against leishmaniasis ((Nelson K G et al. Antimicrob Agents Chemother. 2006).
The animals were inoculated with 5×10^6 of L. major promastigotes (strain Hervás) in 50 μL of PBS into the plantar pad of the right back paw. As negative control of the infection, a group of mice inoculated with 50 μL of PBS was used. The sizes of the lesions were measured every 7 days until the animals were sacrificed (week 9) using a Vernier caliper. The thickness of the right back paw (infected) and the left back paw (uninfected) of all the animals was measured at the base of the fifth toe. The progression of the inflammation is represented as the difference in thickness between the infected and the non-infected paws. […]

[4] = biological target: T1, fibroblast growth factor-1 (FGF-1); assay: Co-crystallisation with FGF-1 (crystal diffraction of complexes); format: binding; settings: for acetoxyl groups of the compound when bound to the protein: electron density contoured at 1σ; for binding site on FGF-1 in the crystal complex: reference: site of 2,5-dihydroxybenzene sulfonic acid, lysine 132
Excerpt: (§3) FIG. 24. 2-acetoxy-5-hydroxybenzenesulfonic acid co-crystallized with fibroblast growth factor-1. […] The compound occupies a place that is very close to that described occupied by 2,5-dihydroxybenzenesulfonic acid, the aromatic ring of which forms a cation-σ bond with the N^ε group of lysine 132, which is marked in panel A as reference. […] In panels A and B, the protein surface is colored according to its electrostatic potential (light grey: negative charge; dark grey: positive charge; white: lack of charge).
as §3, with “25. 5-acetoxy-2-hydroxybenzenesulfonic” for “24. 2-acetoxy-5-hydroxybenzenesulfonic”, “cation-π” for “cation-σ”
as §3, with “26. 2,5-diacetoxybenzenesulfonic” for “24. 2-acetoxy-5-hydroxybenzenesulfonic”, “cation-π” for “cation-σ”
Based on the crystal diffraction of the FGF-1:2-acetoxy-5-hydroxybenzene sulfonic acid, FGF-1:5-acetoxy-2-hydroxybenzene sulfonic acid and FGF-1:2,5-diacetoxybenzene sulfonic acid complexes, the structures of the complexes were calculated and represented. FIGS. 24, 25 and 26, which show the surface of the dyed protein according to its electrostatic potential (light grey: negative charge; dark grey: positive charge; white: lack of charge), show the manner in which 2-acetoxy-5-hydroxybenzene sulfonic acid, 5-acetoxy-2-hydroxybenzene sulfonic acid and 2,5-diacetoxybenzene sulfonic acid interact, respectively, with FGF-1.

rat C6 glioma cells = assay: Proliferation of rat glioma C6 cells (crystal violet); format: cell-based; settings: 500 μM, 48 h
Method: FIG. 23. […] 5A-2HBS and 2A-5HBS were administered or not (control) after seeding C6 cells in 24 well plates (10^4 per well) until they were fixed 48 hours later. Data are expressed as the mean±SEM of the percentage of absorbance at 595 nm obtained in control cultures, which is proportional to the number of cells stained with crystal violet. Data were obtained from 3 cultures for each treatment and 6 control cultures.
The cell line used was the C6 cell line and the experiment was carried out as described in examples 2 and 3. Once adhered, the cells were treated or not (controls) with (5A-2HBS) (500 μM) or (2A-5HBS) (500 μM) and they were allowed to proliferate for 48 h. After this time the glioma cell proliferation was evaluated by means of staining the fixed cells with crystal violet. The number of cells is proportional to the amount of retained dye, which was determined spectrophotometrically by measuring the absorbance at 595 nm once the dye was extracted from the cells.

`O=C([O-])c1cc(O)ccc1O.[K+]` [2,5-dihydroxybenzoate, potassium 2,5-dihydroxybenzoate] was tested, and the “degree of corneal vascularization” value [1] was “remarkable reduction in the degree of corneal vascularization” and the “degree of corneal vascularization” value ([1]; listed as 2,5-dihydroxybenzoic acid) was “noticeable reduction in the degree of corneal vascularization”.

With “calcium 2-acetoxy-5-hydroxybenzenesulfonate” the FGF-1 induced mitogenesis [2] was “Inhibition”.

In the case of `COC(=O)C=Cc1cc(O)ccc1O` [2,5-DHCME, 2,5-dihydroxycinnamic acid methyl ester], the HREC proliferation ([3]; 50 μM) is reported as “significant inhibition” and the HREC proliferation ([3]; 100 μM) is reported as “significant inhibition”.

For `O=S(=O)([O-])c1cc(O)ccc1O.[K+]` [potassium 2,5-dihydroxybenzenesulfonate], the “increase of paw thickness / size of the lesion (infected vs non-infected paw)” value (Leishmania major) was “Reduction in the size of the lesion”, the “increase of paw thickness / size of the lesion (infected vs non-infected paw)” value (Leishmania major; listed as potassium 2,5-dihydroxybenzene sulfonate) was “significant reduction in the increase of paw thickness” and the FGF-1 induced mitogenesis [2] was “Inhibition”.

With `CC(=O)Oc1ccc(O)cc1S(=O)(=O)[O-].[K+]` [2A-5HBS, potassium 2-acetoxy-5-hydroxybenzene sulfonate] the “acetoxyl groups of the compound when bound to the protein” value [4] was “conserve the acetoxyl groups”, the “binding site on FGF-1 in the crystal complex” value [4] was “a site that is very close to the one that has been described occupied by 2,5-dihydroxybenzene sulfonic acid” and the HREC proliferation ([3]; 500 μM) was “significant inhibition”. The HREC proliferation ([3]; 1000 μM) was “significant inhibition” and the “rat glioma cell proliferation” value (rat C6 glioma cells) was “inhibition”.

`CC(=O)Oc1ccc(O)c(S(=O)(=O)[O-])c1.[K+]` [5A-2HBS, potassium 5-acetoxy-2-hydroxybenzenesulfonate] was tested, and the FGF-1 induced mitogenesis [2] was “Inhibition”, the “acetoxyl groups of the compound when bound to the protein” value [4] was “conserve the acetoxyl groups” and the “binding site on FGF-1 in the crystal complex” value [4] was “a site that is very close to the one that has been described occupied by 2,5-dihydroxybenzene sulfonic acid”. For the same molecule, the “rat glioma cell proliferation” value (rat C6 glioma cells) was “inhibition”.
